Measurements: ChEMBL document CHEMBL1145739, “N-(3-phenylsulfonyl-3-piperidinoyl)-phenylalanine derivatives as potent, selective VLA-4 antagonists” (Bioorg Med Chem Lett, 2003)

Experiments:
Integrin alpha-4/beta-7 [1] = target: T1, Integrin alpha-4/beta-7 (Homo sapiens, UniProt P13612+P26010); assay: Binding affinity towards […] receptor in human RPMI-8866 B-cell line using [125I]MAdCAM-Ig as radioligand
T1 sequence (P13612 whole entry): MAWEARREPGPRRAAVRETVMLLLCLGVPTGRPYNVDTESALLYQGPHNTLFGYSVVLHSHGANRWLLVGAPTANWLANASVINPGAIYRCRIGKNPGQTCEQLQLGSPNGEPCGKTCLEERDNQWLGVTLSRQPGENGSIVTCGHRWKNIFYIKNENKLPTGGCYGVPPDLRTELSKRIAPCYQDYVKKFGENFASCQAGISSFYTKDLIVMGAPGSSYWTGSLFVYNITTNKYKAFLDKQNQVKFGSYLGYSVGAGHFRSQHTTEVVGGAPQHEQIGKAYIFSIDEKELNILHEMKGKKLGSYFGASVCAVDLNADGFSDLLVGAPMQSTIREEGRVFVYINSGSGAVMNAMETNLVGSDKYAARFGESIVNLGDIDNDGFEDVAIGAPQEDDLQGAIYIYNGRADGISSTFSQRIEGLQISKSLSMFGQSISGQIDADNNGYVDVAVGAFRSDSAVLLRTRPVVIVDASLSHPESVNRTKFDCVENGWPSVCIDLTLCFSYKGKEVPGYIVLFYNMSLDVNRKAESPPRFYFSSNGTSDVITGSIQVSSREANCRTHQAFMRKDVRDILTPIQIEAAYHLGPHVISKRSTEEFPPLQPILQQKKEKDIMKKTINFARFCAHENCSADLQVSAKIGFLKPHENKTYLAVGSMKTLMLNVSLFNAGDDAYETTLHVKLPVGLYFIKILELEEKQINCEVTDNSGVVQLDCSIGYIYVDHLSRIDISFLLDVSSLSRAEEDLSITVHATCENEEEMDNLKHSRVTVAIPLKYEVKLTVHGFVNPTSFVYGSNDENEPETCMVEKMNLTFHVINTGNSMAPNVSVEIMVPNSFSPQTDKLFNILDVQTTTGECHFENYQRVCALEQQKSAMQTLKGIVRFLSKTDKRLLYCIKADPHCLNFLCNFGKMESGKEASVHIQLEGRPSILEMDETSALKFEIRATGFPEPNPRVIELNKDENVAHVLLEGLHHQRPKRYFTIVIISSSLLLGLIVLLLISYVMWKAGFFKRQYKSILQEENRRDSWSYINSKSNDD
T1 sequence (P26010 whole entry): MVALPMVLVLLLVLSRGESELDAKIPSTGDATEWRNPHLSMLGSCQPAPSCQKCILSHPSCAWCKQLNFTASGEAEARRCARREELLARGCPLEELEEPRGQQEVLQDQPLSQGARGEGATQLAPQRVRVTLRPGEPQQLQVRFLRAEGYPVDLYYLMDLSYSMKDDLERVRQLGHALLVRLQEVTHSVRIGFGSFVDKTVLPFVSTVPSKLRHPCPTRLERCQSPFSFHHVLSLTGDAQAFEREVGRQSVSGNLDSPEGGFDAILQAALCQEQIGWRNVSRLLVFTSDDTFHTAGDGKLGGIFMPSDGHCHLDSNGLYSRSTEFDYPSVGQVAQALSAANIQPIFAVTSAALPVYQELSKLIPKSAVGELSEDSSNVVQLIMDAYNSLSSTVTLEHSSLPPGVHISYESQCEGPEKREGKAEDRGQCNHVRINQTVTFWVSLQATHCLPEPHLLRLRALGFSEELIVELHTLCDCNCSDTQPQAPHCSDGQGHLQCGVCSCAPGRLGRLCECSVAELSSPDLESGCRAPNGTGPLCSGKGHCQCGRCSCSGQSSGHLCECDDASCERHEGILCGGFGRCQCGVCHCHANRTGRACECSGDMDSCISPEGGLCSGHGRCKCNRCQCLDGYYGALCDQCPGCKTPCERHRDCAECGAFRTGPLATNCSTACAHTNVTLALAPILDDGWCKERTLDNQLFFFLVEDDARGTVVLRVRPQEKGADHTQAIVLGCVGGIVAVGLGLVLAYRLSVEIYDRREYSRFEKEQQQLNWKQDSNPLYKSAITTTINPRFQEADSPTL

[2] = Plasma clearance was evaluated at 1 mg/kg of iv administration in Sprague-Dawley rats; type: ADME, organism-based; parameters: dose 1 mg/kg, route intravenous; settings: rat, read-out: Clp
Integrin alpha-4/beta-1 = Integrin alpha-4/beta-1 (Homo sapiens, UniProt P05556+P13612); assay: Binding affinity towards VLA-4 (alpha4 beta-1) receptor in human Jurkat cells using [125I]VCAM-Ig as radioligand; type: cell-based
[3] = Oral bioavailability in rat (Sprague-Dawley) (dose 2 mg/kg); type: ADME, organism-based; settings: in vivo
[4] = Half life time was evaluated at 1 mg/kg of iv administration in Sprague-Dawley rats; type: ADME, organism-based; parameters: dose 1 mg/kg, route intravenous; settings: rat, in vivo
Integrin alpha-4/beta-7 [5] = target: T1, Integrin alpha-4/beta-7; assay: Inhibition of [125I]-VCAM-Ig binding to human integrin alpha4-beta7 receptor in RPMI-8866 cells; type: cell-based
[6] = target: T2, Integrin alpha-4/beta-7 (Homo sapiens) (UniProt P13612+P26010); assay: Percent inhibition of [125I]VCAM-Ig binding to human integrin alpha4-beta7 receptor of RPMI-8866 cells at 100 nM; type: cell-based
[7] = target: T2, Integrin alpha-4/beta-7 (Homo sapiens); assay: Percent inhibition of [125I]MAdCAM-Ig binding to human integrin alpha4-beta7 receptor of RPMI-8866 cells at 100 nM; type: cell-based

Chain of Integrin alpha-4/beta-1 (P05556 whole entry, one chain of several): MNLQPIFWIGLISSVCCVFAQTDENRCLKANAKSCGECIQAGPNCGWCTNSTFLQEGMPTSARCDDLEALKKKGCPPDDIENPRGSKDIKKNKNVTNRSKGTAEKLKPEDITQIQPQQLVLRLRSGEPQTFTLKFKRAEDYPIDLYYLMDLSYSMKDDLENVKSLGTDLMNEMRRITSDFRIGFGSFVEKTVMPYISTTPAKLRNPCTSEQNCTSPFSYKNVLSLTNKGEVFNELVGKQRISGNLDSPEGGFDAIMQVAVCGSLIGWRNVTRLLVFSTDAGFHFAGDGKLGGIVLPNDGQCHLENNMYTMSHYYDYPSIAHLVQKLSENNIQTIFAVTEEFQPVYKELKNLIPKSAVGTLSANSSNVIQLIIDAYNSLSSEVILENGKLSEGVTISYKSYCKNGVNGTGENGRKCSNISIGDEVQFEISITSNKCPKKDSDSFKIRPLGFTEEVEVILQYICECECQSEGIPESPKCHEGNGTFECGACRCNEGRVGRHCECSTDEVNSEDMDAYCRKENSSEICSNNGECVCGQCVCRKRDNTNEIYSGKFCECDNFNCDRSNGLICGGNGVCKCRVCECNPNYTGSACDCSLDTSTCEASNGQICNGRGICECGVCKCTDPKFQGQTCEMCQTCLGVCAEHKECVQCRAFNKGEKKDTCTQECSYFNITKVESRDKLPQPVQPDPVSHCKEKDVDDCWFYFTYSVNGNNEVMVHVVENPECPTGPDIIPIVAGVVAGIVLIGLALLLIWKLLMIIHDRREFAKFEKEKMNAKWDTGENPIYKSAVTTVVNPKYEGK

| Structure (SMILES) | IC50 (Integrin alpha-4/beta-1) [nM] | IC50 (Integrin alpha-4/beta-7 [5]) [nM] | further results |
| --- | --- | --- | --- |
| COc1ccccc1-c1ccc(C[C@H](NC(=O)C2(S(=O)(=O)c3ccc(Cl)cc3)CCCCC2)C(=O)O)cc1 | 1.1 | 53 | – |
| COc1ccccc1-c1ccc(C[C@H](NC(=O)C2(S(=O)(=O)c3nccn3C)CCCC2)C(=O)O)cc1 | 0.21 | 4 | – |
| COc1ccccc1-c1ccc(C[C@H](NC(=O)C2(S(=O)(=O)c3ccc(F)cc3)CCCCC2)C(=O)O)cc1 | 0.75 | 25 | – |
| COc1ccccc1-c1ccc(C[C@H](NC(=O)C2(S(=O)(=O)c3ccccc3C)CCCCC2)C(=O)O)cc1 | 2.7 | 149 | – |
| COc1ccccc1-c1ccc(C[C@H](NC(=O)C2(S(=O)(=O)C(C)(C)C)CCCC2)C(=O)O)cc1 | 0.47 | 19 | – |
| O=C(O)[C@H](Cc1ccc(-c2ccccc2)cc1)NC(=O)C1(S(=O)(=O)C2CCCCC2)CCCCC1 | 14 | – | inhibition [6]: 24% |
| COc1ccccc1-c1ccc(C[C@H](NC(=O)C2(S(=O)(=O)C3CCCCC3)CCCC2)C(=O)O)cc1 | 1.1 | 52 | – |
| COc1ccccc1-c1ccc(C[C@H](NC(=O)C2(S(=O)(=O)c3ccc(C)cc3)CCCCC2)C(=O)O)cc1 | 1.5 | 91 | – |
| O=C(O)[C@H](Cc1ccc(-c2ccccc2)cc1)NC(=O)C1(S(=O)(=O)c2ccccc2)CC=CC1 | 275 | – | inhibition [7]: 7% |
| O=C(O)[C@H](Cc1ccc(-c2ccccc2)cc1)NC(=O)C1(S(=O)(=O)c2ccccc2Br)CCCCC1 | 45 | – | inhibition [6]: 13% |
| O=C(O)[C@H](Cc1ccc(-c2ccccc2)cc1)NC(=O)C1(S(=O)(=O)c2cccc3ccccc23)CCCC1 | 735 | – | inhibition [6]: 7% |

Second part, led by results:

| IC50 (Integrin alpha-4/beta-1) [nM] | IC50 (Integrin alpha-4/beta-7 [5]) [nM] | Structure (SMILES) | further results |
| --- | --- | --- | --- |
| 0.19 | – | O=C(Nc1ccc(C[C@H](NC(=O)C2(S(=O)(=O)c3ccccc3)CCCNC2)C(=O)O)cc1)c1c(Cl)cccc1Cl (stereo not given in full) | IC50 (Integrin alpha-4/beta-7 [1]): 22 nM; clearance [2]: 78 mL/min/kg; bioavailability [3]: 0%; half-life [4]: 18 min |
| 0.16 | – | COc1cccc(OC)c1-c1ccc(C[C@H](NC(=O)C2(S(=O)(=O)c3ccccc3)CCOCC2)C(=O)O)cc1 | IC50 (Integrin alpha-4/beta-7 [1]): 38 nM; clearance [2]: 133 mL/min/kg; bioavailability [3]: 3%; half-life [4]: 48 min |
| 0.09 | – | COc1cccc(OC)c1-c1ccc(C[C@H](NC(=O)C2(S(=O)(=O)c3ccccc3)CCCNC2)C(=O)O)cc1 (stereo not given in full) | IC50 (Integrin alpha-4/beta-7 [1]): 168 nM; clearance [2]: 46 mL/min/kg; bioavailability [3]: 1%; half-life [4]: 30 min |
| 1 | 77 | COc1ccccc1-c1ccc(C[C@H](NC(=O)C2(S(=O)(=O)c3cccc(C)c3)CCCCC2)C(=O)O)cc1 | – |
| 0.22 | – | O=C(Nc1ccc(C[C@H](NC(=O)C2(S(=O)(=O)c3ccccc3)CCOCC2)C(=O)O)cc1)c1c(Cl)cccc1Cl | IC50 (Integrin alpha-4/beta-7 [1]): 20 nM; clearance [2]: 48 mL/min/kg; bioavailability [3]: 1%; half-life [4]: 36 min |
| 53 | – | Cc1ccc(S(=O)(=O)C2(C(=O)N[C@@H](Cc3ccc(-c4ccccc4)cc3)C(=O)O)CCCCC2)cc1 | inhibition [6]: 0% |
| 0.33 | 83 | COc1ccccc1-c1ccc(C[C@H](NC(=O)C2(S(=O)(=O)c3ccccc3)CCCC2)C(=O)O)cc1 | – |
| 23 | – | O=C(O)[C@H](Cc1ccc(-c2ccccc2)cc1)NC(=O)C1(S(=O)(=O)c2ccc(Br)cc2)CCCC1 | inhibition [6]: 20% |
